Source: ChEMBL document CHEMBL4184087, “Synthesis, optical properties and cytotoxicity of meso-heteroatom substituted IR-786 analogs” (Bioorg Med Chem Lett, 2018)

Assays:
PC-3 = assay: Antiproliferative activity against human PC3 cells after 48 hrs by MTT assay; format: functional, cell-based; settings: PC-3, 48 h
[1] = Stability of the compound in anhydrous methanol solution under dark condition after 24 hrs by UV-vis spectroscopic analysis
[2] = Photostability of the compound in anhydrous methanol solution under UV irradiation of 15 W after 24 hrs by UV-vis spectroscopic analysis

Structure (SMILES) | IC50 (PC-3) | Stability [1] | Stability [2]
COc1cccc2c1C(=O)c1c(O)c3c(c(O)c1C2=O)C[C@@](O)(C(=O)CO)C[C@@H]3O[C@H]1C[C@H](N)[C@H](O)[C@H](C)O1 [DOXORUBICIN] | 2.6 µM | – | –
CN(C)CCSC1=C(/C=C/C2=[N+](C)c3ccccc3C2(C)C)CCC/C1=C\C=C1\N(C)c2ccccc2C1(C)C | 6.04 µM | – | –
CN1/C(=C/C=C2\CCCC(/C=C/C3=[N+](C)c4ccccc4C3(C)C)=C2Oc2ccncc2)C(C)(C)c2ccccc21.[I-] | 5.22 µM | Stable | Stable
CN1/C(=C/C=C2\CCCC(/C=C/C3=[N+](C)c4ccccc4C3(C)C)=C2N2CCC(CO)CC2)C(C)(C)c2ccccc21 | 9.33 µM | – | –
CCN(CCO)C1=C(/C=C/C2=[N+](C)c3ccccc3C2(C)C)CCC/C1=C\C=C1\N(C)c2ccccc2C1(C)C | 9.08 µM | – | –
CN(CCO)C1=C(/C=C/C2=[N+](C)c3ccccc3C2(C)C)CCC/C1=C\C=C1\N(C)c2ccccc2C1(C)C | 9.23 µM | – | –

Further molecules by falling IC50 (PC-3), results first:

IC50 (PC-3) | Stability [1] | Stability [2] | Structure (SMILES)
13.2 µM | – | – | CN(C)CCNC1=C(/C=C/C2=[N+](C)c3ccccc3C2(C)C)CCC/C1=C\C=C1\N(C)c2ccccc2C1(C)C
12.5 µM | Stable | Stable | CN1/C(=C/C=C2\CCCC(/C=C/C3=[N+](C)c4ccccc4C3(C)C)=C2Sc2ccncc2)C(C)(C)c2ccccc21.[I-]
4.73 µM | Stable | Stable | CN1/C(=C/C=C2\CCCC(/C=C/C3=[N+](C)c4ccccc4C3(C)C)=C2NCCO)C(C)(C)c2ccccc21.[I-]
